As usually defined, the IC50 is the concentration needed to halve the response being measured. As a reminder, the GI50 is the concentration at which growth is held to half of that of the control. A high value points to less potent growth inhibition.

The record followed here is ChEMBL document CHEMBL4765434, “Pyrrolo[2,3-d]pyrimidine derivatives as inhibitors of RET: Design, synthesis and biological evaluation” (Eur J Med Chem, 2020).

The source made the active and inactive calls. No cut-off for these calls is given here.

In assay [1] the test system is LC-2-ad. Description: Inhibition of cell migration in human LC-2-ad cells assessed as migrated distance at 1 uM measured after 52 hrs by microscopic method (reference value: 819.01 +/- 65.76 micrometer). It counts as functional.
Assay [2] addresses T1, Proto-oncogene tyrosine-protein kinase receptor Ret (Homo sapiens, UniProt P07949). Description: Inhibition of recombinant human GST-tagged RET cytoplasmic domain (658 to 1114 residues) expressed in baculovirus expression system using 5-FAM-EEPLYWSFPAKKK-CONH2 as substrate preincubated for 60 mins followed by substrate addition by microfluidic assay.
The test system of assay [3] is LC-2-ad. Description: Growth inhibition of human LC-2-ad cells measured after 3 days by resazurin staining based fluorescence assay. It counts as functional. The settings on record: 72 h, time 3 day. (In general: Alamar Blue is a resazurin reagent that responds to reducing activity.)
Assay [4] addresses Proto-oncogene tyrosine-protein kinase receptor Ret (Homo sapiens, UniProt P07949, V804M). Description: Inhibition of recombinant human N-terminal GST-HIS6 fused RET V804M mutant (658 to 1114 residues) expressed in Sf9 insect cells using 5-FAM-EEPLYWSFPAKKK-CONH2 as substrate preincubated for 60 mins followed by substrate addition by microfluidic assay.
Assay [5] concerns the target T1, Proto-oncogene tyrosine-protein kinase receptor Ret. Description: Non ATP-competitive inhibition of recombinant human GST-tagged RET cytoplasmic domain (658 to 1114 residues) expressed in baculovirus expression system at 3.125 to 50 nM using 5-FAM-EEPLYWSFPAKKK-CONH2 as substrate. The settings on record: dose 3.125-50 nM.
Assay [6] shares this target. Description: Non competitive inhibition of recombinant human GST-tagged RET cytoplasmic domain (658 to 1114 residues) expressed in baculovirus expression system at 3.125 to 50 nM using 5-FAM-EEPLYWSFPAKKK-CONH2 as substrate by Lineweaver-burk plot analysis. The settings on record: dose 3.125-50 nM.
In assay [7] the target is Epidermal growth factor receptor (Homo sapiens, UniProt P00533). Description: Inhibition of EGFR (unknown origin).
The next assay has as its target T2, Aurora kinase A (Homo sapiens, UniProt O14965).
T2 sequence (O14965 whole entry): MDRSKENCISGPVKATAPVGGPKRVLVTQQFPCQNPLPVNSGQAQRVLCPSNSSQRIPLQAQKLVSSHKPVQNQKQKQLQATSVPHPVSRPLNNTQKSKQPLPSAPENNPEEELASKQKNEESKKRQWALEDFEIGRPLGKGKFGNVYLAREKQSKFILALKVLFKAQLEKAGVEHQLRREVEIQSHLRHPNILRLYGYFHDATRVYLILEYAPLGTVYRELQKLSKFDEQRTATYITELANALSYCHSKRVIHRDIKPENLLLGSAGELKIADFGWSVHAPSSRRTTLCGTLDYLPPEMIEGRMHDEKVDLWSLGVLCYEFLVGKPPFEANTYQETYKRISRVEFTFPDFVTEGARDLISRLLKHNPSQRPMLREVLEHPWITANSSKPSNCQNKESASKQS
Description: Inhibition of Aurora A (unknown origin).

A further assay addresses Aurora kinase B (Homo sapiens, UniProt Q96GD4). Description: Inhibition of Aurora B (unknown origin).
The target of assay [8] is T3, Serine/threonine-protein kinase Nek2 (Homo sapiens, UniProt P51955).
T3 sequence (P51955 whole entry): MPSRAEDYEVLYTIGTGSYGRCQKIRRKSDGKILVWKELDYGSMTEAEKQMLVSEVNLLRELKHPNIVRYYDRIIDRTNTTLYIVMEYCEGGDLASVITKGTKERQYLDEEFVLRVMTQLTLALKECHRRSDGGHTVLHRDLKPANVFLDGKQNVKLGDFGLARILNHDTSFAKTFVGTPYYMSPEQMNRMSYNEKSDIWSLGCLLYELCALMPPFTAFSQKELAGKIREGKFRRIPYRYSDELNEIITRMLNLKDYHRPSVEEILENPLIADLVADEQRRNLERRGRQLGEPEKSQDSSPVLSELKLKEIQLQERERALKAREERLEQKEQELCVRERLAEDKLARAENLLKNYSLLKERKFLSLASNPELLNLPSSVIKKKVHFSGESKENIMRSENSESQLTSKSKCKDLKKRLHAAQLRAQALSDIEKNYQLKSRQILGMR
Description: Inhibition of Nek2 (unknown origin).

Assay [9] has as its target Macrophage colony-stimulating factor 1 receptor (Homo sapiens, UniProt P07333). Description: Inhibition of CSF1R (unknown origin).
The target of assay [10] is Mitogen-activated protein kinase kinase kinase kinase 4 (Homo sapiens, UniProt O95819). Description: Inhibition of MAP4K4 (unknown origin).
Sequence of Mitogen-activated protein kinase kinase kinase kinase 4 (O95819 whole entry): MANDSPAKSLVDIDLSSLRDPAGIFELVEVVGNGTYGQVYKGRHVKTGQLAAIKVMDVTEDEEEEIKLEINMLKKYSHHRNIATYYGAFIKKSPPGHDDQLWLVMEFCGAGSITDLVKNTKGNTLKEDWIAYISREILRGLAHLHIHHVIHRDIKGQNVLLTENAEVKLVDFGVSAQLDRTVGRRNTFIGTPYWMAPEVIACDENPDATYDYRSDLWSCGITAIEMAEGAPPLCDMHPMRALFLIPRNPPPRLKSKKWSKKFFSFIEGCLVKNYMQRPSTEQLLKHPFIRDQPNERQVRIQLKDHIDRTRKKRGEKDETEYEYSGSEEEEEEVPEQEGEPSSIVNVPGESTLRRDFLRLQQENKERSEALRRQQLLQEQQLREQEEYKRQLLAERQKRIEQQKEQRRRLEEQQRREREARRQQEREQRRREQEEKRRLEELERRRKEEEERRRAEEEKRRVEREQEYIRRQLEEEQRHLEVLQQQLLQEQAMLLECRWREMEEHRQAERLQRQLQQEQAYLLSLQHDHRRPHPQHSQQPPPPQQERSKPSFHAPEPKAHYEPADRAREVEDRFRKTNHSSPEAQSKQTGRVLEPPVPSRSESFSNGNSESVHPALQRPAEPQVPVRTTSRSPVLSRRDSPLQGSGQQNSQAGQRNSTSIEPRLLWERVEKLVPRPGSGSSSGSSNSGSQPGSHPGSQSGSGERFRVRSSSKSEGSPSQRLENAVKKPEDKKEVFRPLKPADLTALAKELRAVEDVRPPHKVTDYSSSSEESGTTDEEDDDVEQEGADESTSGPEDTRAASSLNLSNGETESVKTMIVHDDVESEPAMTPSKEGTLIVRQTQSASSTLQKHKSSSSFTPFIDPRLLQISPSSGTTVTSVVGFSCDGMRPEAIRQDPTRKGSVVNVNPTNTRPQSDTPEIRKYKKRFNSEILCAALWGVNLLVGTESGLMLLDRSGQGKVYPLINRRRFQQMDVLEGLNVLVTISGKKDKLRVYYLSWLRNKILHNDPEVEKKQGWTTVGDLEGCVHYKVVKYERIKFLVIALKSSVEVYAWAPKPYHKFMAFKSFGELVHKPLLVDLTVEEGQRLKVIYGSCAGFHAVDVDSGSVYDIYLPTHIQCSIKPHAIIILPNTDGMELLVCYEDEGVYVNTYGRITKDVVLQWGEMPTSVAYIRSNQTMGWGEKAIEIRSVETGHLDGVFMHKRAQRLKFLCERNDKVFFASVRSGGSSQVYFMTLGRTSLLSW
For assay [11], the target named is Mitogen-activated protein kinase kinase kinase 14 (Homo sapiens, UniProt Q99558). Description: Inhibition of NIK (unknown origin).
Sequence of Mitogen-activated protein kinase kinase kinase 14 (Q99558 whole entry): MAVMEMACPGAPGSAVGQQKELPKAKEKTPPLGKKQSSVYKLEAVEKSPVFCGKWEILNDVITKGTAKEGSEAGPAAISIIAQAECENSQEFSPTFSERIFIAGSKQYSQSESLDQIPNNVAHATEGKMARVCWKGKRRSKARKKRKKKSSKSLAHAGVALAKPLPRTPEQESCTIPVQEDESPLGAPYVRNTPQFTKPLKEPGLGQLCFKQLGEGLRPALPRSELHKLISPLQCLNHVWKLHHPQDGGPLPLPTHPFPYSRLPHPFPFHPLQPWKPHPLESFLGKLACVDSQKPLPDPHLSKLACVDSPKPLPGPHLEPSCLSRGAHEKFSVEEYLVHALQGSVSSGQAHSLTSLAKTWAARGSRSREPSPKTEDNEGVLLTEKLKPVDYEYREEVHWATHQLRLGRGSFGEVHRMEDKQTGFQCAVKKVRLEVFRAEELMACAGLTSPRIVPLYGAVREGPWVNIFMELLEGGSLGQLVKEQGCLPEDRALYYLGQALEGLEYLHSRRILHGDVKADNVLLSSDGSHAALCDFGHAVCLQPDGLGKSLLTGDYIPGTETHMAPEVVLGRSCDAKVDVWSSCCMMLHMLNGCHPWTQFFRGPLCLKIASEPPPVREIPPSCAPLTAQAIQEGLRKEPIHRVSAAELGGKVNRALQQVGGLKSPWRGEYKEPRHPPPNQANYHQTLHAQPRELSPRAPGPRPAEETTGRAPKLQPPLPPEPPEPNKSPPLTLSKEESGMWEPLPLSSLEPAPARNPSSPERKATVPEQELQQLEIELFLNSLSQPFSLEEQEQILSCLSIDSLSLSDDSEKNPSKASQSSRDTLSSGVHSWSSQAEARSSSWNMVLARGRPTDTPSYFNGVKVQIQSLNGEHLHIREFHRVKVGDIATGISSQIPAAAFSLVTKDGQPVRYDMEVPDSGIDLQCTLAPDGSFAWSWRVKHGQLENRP
Assay [12] concerns LC-2-ad. Description: Inhibition of cell migration in human LC-2-ad cells assessed as migrated distance at 3 uM measured after 52 hrs by microscopic method (reference value: 819.01 +/- 65.76 micrometer). It counts as functional.

T1 sequence (P07949 whole entry, the tested form may be a part): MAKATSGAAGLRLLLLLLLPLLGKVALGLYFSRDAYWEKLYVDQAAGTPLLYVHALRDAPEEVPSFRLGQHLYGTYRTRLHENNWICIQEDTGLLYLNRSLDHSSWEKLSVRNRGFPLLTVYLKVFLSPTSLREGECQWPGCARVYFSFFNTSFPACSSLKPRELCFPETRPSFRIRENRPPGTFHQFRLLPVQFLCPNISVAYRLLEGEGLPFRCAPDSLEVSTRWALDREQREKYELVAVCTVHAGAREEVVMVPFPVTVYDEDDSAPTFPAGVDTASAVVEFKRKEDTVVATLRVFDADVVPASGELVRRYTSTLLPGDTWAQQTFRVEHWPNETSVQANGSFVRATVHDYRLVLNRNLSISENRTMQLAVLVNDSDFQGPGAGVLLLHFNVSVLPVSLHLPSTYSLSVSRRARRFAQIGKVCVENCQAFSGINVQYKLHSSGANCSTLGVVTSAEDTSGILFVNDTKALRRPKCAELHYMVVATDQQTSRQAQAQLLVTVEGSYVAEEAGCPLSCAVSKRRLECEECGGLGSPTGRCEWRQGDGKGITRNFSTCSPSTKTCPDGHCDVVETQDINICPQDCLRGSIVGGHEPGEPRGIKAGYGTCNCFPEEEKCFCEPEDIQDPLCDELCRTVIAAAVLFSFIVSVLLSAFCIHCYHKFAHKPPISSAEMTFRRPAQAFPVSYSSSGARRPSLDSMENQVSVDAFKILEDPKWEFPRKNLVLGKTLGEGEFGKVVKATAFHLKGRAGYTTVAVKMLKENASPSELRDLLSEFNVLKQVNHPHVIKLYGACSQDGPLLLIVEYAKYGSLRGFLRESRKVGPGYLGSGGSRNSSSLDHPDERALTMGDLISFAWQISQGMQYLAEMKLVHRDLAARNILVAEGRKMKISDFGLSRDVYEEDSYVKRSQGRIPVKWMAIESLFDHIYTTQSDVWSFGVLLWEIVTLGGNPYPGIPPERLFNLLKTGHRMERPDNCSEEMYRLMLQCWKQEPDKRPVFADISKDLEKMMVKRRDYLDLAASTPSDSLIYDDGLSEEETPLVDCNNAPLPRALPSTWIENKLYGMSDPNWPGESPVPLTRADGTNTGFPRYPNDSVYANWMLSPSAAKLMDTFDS
Sequence of Proto-oncogene tyrosine-protein kinase receptor Ret (Homo sapiens, UniProt P07949, V804M) (P07949 29-1114 V804M limits assumed): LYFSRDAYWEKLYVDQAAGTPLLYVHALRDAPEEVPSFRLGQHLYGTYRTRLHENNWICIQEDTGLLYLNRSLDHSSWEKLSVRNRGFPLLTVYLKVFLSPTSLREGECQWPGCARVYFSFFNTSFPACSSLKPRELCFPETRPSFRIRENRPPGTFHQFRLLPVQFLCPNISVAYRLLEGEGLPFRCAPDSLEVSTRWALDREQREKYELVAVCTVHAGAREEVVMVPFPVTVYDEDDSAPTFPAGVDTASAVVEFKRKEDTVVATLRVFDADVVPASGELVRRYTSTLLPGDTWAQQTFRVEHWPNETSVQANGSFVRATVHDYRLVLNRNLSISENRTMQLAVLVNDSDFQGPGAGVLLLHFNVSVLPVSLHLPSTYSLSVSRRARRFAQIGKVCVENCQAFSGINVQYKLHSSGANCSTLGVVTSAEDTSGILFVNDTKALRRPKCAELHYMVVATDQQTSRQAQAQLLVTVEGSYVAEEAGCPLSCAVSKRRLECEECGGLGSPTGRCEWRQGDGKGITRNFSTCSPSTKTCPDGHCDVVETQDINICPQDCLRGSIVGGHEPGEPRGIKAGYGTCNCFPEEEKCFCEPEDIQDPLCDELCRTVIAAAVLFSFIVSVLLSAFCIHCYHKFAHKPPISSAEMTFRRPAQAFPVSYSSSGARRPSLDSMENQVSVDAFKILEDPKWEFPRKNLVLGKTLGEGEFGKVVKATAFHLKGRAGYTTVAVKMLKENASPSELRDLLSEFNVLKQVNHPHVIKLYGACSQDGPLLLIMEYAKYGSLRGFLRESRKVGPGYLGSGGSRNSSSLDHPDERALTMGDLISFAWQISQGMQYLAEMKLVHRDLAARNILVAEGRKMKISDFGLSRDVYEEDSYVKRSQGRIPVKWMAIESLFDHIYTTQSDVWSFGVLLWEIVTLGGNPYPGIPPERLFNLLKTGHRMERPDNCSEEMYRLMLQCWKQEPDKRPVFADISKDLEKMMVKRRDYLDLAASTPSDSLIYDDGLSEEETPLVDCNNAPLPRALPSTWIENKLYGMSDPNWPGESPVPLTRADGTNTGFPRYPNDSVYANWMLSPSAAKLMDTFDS
Sequence of Aurora kinase B (Q96GD4 whole entry): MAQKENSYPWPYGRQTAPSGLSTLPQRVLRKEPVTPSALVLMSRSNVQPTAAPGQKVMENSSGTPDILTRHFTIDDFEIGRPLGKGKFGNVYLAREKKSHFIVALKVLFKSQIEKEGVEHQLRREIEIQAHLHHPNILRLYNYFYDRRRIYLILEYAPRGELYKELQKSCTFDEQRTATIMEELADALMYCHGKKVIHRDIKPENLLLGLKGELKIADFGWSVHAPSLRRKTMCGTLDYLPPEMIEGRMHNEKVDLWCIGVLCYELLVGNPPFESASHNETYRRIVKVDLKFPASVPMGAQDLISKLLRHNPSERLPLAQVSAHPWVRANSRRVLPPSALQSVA

As to `COc1cc2nccc(Oc3ccc(NC(=O)C4(C(=O)Nc5ccc(F)cc5)CC4)cc3)c2cc1OC` [CABOZANTINIB], the Activity with LC-2-ad [1] stood at 287.3 um. With `Cn1nc(C(C)(C)C)cc1NC(=O)Cc1ccc(Nc2ncnc3sccc23)cc1`, the half-maximal inhibitory concentration (IC50) in [2] is 1.06 µM. Also, growth with LC-2-ad [3] was halved (GI50) at 17.5 µM. Turning to `Cn1cc(-c2cc3c(Nc4ccc(CC(=O)Nc5cccc(F)c5)cc4)ncnc3[nH]2)cn1`, in [2], the IC50 is more than 20 µM. On the same count and under the same terms, to `CC(C)(C)c1ccc(NC(=O)Cc2ccc(Nc3ncnc4[nH]ccc34)cc2)cc1` belongs 15.8 µM; to `O=C(Cc1ccc(Nc2ncnc3[nH]ccc23)cc1)NCc1ccccc1`, 4.65 µM. Turning to `Cn1cc(-c2cc3c(Nc4ccc(CC(=O)Nc5cc(C(C)(C)C)on5)cc4)ncnc3[nH]2)cn1`, the IC50 is 0.009 µM in [2] and 0.0635 µM in assay [4]. The molecule also showed a GI50 with LC-2-ad [3] of 0.136 µM.

As to `Cn1nc(C(C)(C)C)cc1NC(=O)Cc1ccc(Nc2ncnc3c2ccn3C)cc1`, the IC50 in [2] amounted to 3.93 µM. The same molecule gave a concentration for 50% growth inhibition (GI50) in the assay on LC-2-ad [3] of 36.4 µM.

Consider `CC(C)(C)c1cc(NC(=O)Cc2ccc(Nc3ncnc4[nH]c(-c5ccsc5)cc34)cc2)no1`, for which the IC50 in assay [2] was 0.05 µM. The molecule also gave a concentration for 50% growth inhibition (GI50) with LC-2-ad [3] of 0.18 µM. For the molecule `COc1ccc(-c2cc3c(Nc4ccc(CC(=O)Nc5cccc(F)c5)cc4)ncnc3[nH]2)cc1`, the concentration for half-maximal inhibition (IC50) in assay [2] is more than 20 µM. `Cn1nc(C(C)(C)C)cc1NC(=O)Cc1ccc(Nc2ncnc3[nH]c(-c4ccsc4)cc23)cc1`: the IC50 in assay [2] turned out to be 0.052 µM. Same read-out and setting: the figure for `CC(C)(C)c1ccc(-c2cc3c(Nc4ccc(CC(=O)Nc5cccc(F)c5)cc4)ncnc3[nH]2)cc1` is more than 20 µM; for `O=C(Cc1ccc(Nc2ncnc3[nH]ccc23)cc1)Nc1cccc(F)c1` it is more than 20 µM. Turning to `Cn1cc(-c2cc3c(Nc4ccc(CC(=O)Nc5cc(C(C)(C)C)nn5C)cc4)ncnc3s2)cn1`, the IC50 in [2] came to 1.39 µM. With `CC(C)c1ccc(NC(=O)Cc2ccc(Nc3ncnc4[nH]ccc34)cc2)cc1`, the IC50 in assay [2] was 7.69 µM. The molecule further registered a concentration for 50% growth inhibition (GI50) in the assay with LC-2-ad [3] of 29.6 µM.

Regarding `O=C(Cc1ccc(Nc2ncnc3[nH]ccc23)cc1)Nc1ccc(OC(F)(F)F)cc1`, the half-maximal inhibitory concentration (IC50) in [2] is more than 20 µM. For the molecule `CC(C)c1ccc(NC(=O)Cc2ccc(Nc3ncnc4[nH]c(-c5cnn(C)c5)cc34)cc2)cc1`, in assay [2], the IC50 is more than 20 µM. Still for that read-out and setting: the figure for `COc1ccc(-c2cc3c(Nc4ccc(CC(=O)Nc5ccc(C(C)C)cc5)cc4)ncnc3[nH]2)cc1` is 2.44 µM. The same measure, in the same setting: to `CC(=O)c1ccc(-c2cc3c(Nc4ccc(CC(=O)Nc5cc(C(C)(C)C)on5)cc4)ncnc3[nH]2)cc1` belongs 0.044 µM.

Consider `CC(C)(C)c1cc(NC(=O)Cc2cccc(Nc3ncnc4[nH]ccc34)c2)no1`, for which the IC50 in assay [2] was 31.6 µM. In the assay on LC-2-ad [3], this molecule had a concentration for 50% growth inhibition (GI50) of 43.7 µM. On to `O=C(Cc1ccc(Nc2ncnc3[nH]ccc23)cc1)NC1CCC1`, for which the IC50 in assay [2] worked out at 3.91 µM.

On to `O=C(Cc1ccc(Nc2ncnc3sccc23)cc1)Nc1cccc(F)c1`, for which, in assay [2], the IC50 was more than 20 µM. For the molecule `Cn1nc(C(C)(C)C)cc1NC(=O)Cc1cccc(Nc2ncnc3[nH]ccc23)c1`, in assay [2], the concentration for half-maximal inhibition (IC50) was found to be 39.6 µM. On the same count and under the same terms, to `Cn1nc(C(C)(C)C)cc1NC(=O)Cc1ccc(Nc2ncnc3[nH]c(-c4ccc(S(C)(=O)=O)cc4)cc23)cc1` belongs 0.009 µM; to `CS(=O)(=O)c1ccc(NC(=O)Cc2ccc(Nc3ncnc4[nH]ccc34)cc2)cc1`, more than 20 µM.

Turning to `O=C(Cc1ccc(Nc2ncnc3[nH]ccc23)cc1)NC1CC1`, the IC50 in assay [2] was determined as 2.37 µM. In the assay with LC-2-ad [3], this molecule returned a concentration for 50% growth inhibition (GI50) of 14 µM.

For `COc1ccc(-c2cc3c(Nc4ccc(CC(=O)Nc5cc(C(C)(C)C)nn5C)cc4)ncnc3[nH]2)cc1`, the 50% inhibitory concentration (IC50) in [2] came to 0.12 µM. Still for that read-out and setting: the figure for `COc1ccc(-c2cc3c(Nc4ccc(CC(=O)Nc5ccc(F)cc5)cc4)ncnc3[nH]2)cc1` is more than 20 µM. Take `Cn1cc(-c2cc3c(Nc4ccc(CC(=O)Nc5cc(C(C)(C)C)nn5C)cc4)ncnc3[nH]2)cn1`: the figures for the 50% inhibitory concentration (IC50) in assay [2] and in assay [4] were 0.021 µM and 0.0728 µM, respectively. Regarding `Cn1ccc2c(Nc3ccc(CC(=O)Nc4cc(C(C)(C)C)on4)cc3)ncnc21`, the half-maximal inhibitory concentration (IC50) in [2] is 3.51 µM. As for `O=C(Cc1ccc(Nc2ncnc3[nH]ccc23)cc1)Nc1cccc(C(F)(F)F)c1`, the concentration for half-maximal inhibition (IC50) in assay [2] came out at 16.2 µM. Further, the 50% growth inhibitory concentration (GI50) with LC-2-ad [3] came out at 33.5 µM. For the molecule `CC(C)(C)c1ccc(-c2cc3c(Nc4ccc(CC(=O)Nc5cc(C(C)(C)C)on5)cc4)ncnc3[nH]2)cc1`, the half-maximal inhibitory concentration (IC50) in assay [2] came out at 13.5 µM. Turning to `O=C(Cc1ccc(Nc2ncnc3[nH]ccc23)cc1)Nc1ccc(C(F)(F)F)c(Cl)c1`, in [2], the IC50 was more than 20 µM. The same measure, in the same setting: the figure for `O=C(Cc1ccc(Nc2ncnc3[nH]c(-c4ccsc4)cc23)cc1)Nc1cccc(F)c1` is more than 20 µM. Take `CC(C)(C)c1cc(NC(=O)Cc2ccc(Nc3ncnc4[nH]ccc34)cc2)no1`: in assay [2], the concentration for half-maximal inhibition (IC50) amounted to 0.076 µM. Further, growth in the assay with LC-2-ad [3] was halved (GI50) at 1.26 µM. With `CC(C)(C)c1cc(NC(=O)Cc2ccc(Nc3ncnc4sccc34)cc2)no1`, the half-maximal inhibitory concentration (IC50) in [2] was 0.96 µM. Besides, in the assay on LC-2-ad [3], the GI50 turned out to be 15.2 µM.

As for `O=C(Cc1ccc(Nc2ncnc3[nH]ccc23)cc1)Nc1ccc2c(c1)OCO2`, the half-maximal inhibitory concentration (IC50) in [2] was more than 20 µM. The same measure, in the same setting: the figure for `O=C(Cc1ccc(Nc2ncnc3[nH]ccc23)cc1)Nc1cccc2ncccc12` is 19 µM. Consider `Cn1nc(C(C)(C)C)cc1NC(=O)Cc1ccc(Nc2ncnc3[nH]ccc23)cc1`, for which, in assay [2], the half-maximal inhibitory concentration (IC50) is 0.127 µM. In the assay with LC-2-ad [3], the GI50 is 1.65 µM.

Consider `Cn1cc(-c2cc3c(Nc4ccc(CC(=O)Nc5cc(C(C)(C)C)on5)cc4)ncnc3s2)cn1`, for which, in [2], the IC50 came to 0.82 µM. For `CC(C)(C)c1cc(NC(=O)Cc2ccc(Nc3ncnc4[nH]c(-c5ccc(S(C)(=O)=O)cc5)cc34)cc2)no1`, the IC50 in assay [2] is 0.0068 µM; in [4] it was 0.0135 µM; in [7] it was 56.8 µM; against Aurora kinase A it was 0.242 µM; at Aurora kinase B it was 0.536 µM; in [8] it was more than 200 µM. The concentration for half-maximal inhibition (IC50) is 1.65 µM in [9], 3.43 µM in assay [10] and more than 10 µM in assay [11]. The inhibition entry in assay [5] and in assay [6] was “Active” in each case. The molecule also showed a GI50 with LC-2-ad [3] of 0.107 µM. For the same molecule, in the assay on LC-2-ad [12], the Activity was determined as 356.41 um. For `COc1cc(NC(=O)Cc2ccc(Nc3ncnc4[nH]ccc34)cc2)cc(OC)c1OC`, the concentration for half-maximal inhibition (IC50) in [2] was 47.6 µM.
